Experiments:
[1] = system: MV-4-11; experiment: Cell viability assay (resazurin, leukemia cell lines), 72 h growth inhibition; assay type: cell-based; conditions: Homo sapiens, MV4-11, MV-4-11 cells
Excerpt: (§1) Compounds from Example 1 may be subjected to a standard MTT (3-(4,5-dimethylthiazol-2-yl)-2,5-diphenyltetrazolium bromide) and resazurin assays on solid tumour cell lines and leukemia cell lines, respectively, as previously reported (Wang S et al., J Med Chem 47:1662-1675, 2004 and Diab S e al. CheMedChem 9:962-972, 2014). Compound concentrations required to inhibit 50% of cell growth (GI50) can be calculated using non-linear regression analysis.

[2] = target: T1, CDK8/CycC (Homo sapiens, UniProt P49336); experiment: Radiometric protein kinase assay (33PanQinase Activity Assay, ProQinase); assay type: biochemical; conditions: 1.0 μM ATP, 1.0 μg/50 μL substrate RBER-IRStide, duplicate measurements, read-out: CDK8 Kinase inhibition IC50
T1 construct: purchased ProQinase GmbH, Freiburg, Germany
Experimental: The kinase activity of CDK8/CycC was measured using a radiometric protein kinase assay (33PanQinase® Activity Assay) by ProQinase GmbH, Freiburg, Germany, with the protocols shown at www.proqinase.com/sites/default/files/public/uploads/WildtypeProfiler/radiometric_assay_v05_2012_manual.pdf. IC50 determination (8.3 nM with 1.0 μM ATP and 1.0 μg/50 μL of substrate RBER-IRStide) was performed as duplicate measurements and calculated using Quattro Workflow V3.1.1 (Quattro Research GmbH, Germany). Apparent inhibition constants (Ki) values were calculated from Km (ATP) and IC50 values for the respective kinases.

[3] = system: HCT-116; experiment: Cell viability assay (MTT, solid tumour cell lines), 72 h growth inhibition; assay type: cell-based; conditions: Homo sapiens, HCT-116 cells
Excerpt: as §1

[4] = system: acute myeloid leukaemia (AML) cell lines; conditions: background; cited from earlier work
[5] = system: mouse model of AML; conditions: background; cited from earlier work

T1 sequence (P49336 whole entry): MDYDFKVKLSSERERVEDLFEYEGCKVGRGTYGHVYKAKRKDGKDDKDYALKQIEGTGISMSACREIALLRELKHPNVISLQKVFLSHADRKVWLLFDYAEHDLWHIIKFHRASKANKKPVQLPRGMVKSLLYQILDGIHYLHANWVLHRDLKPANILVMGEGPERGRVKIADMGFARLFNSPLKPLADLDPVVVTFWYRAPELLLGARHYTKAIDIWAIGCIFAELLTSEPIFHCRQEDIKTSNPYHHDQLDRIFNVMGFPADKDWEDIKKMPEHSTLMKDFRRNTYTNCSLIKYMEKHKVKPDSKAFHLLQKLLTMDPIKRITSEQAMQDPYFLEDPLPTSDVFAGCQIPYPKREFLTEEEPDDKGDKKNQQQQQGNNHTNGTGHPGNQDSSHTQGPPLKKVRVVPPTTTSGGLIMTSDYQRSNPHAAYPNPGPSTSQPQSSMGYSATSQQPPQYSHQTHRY
T1 sequence (P24863 whole entry partner): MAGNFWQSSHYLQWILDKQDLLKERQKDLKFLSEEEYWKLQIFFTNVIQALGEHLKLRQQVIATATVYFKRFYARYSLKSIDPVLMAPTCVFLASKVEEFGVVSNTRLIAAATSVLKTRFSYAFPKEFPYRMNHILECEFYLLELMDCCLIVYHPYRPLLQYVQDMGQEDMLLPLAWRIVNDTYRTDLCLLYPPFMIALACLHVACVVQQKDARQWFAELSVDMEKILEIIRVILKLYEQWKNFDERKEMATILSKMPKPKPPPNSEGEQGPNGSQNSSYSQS

Molecule	GI50 [1]	IC50 [2]	GI50 [3]	Suppression of cell growth (in words) [4]	Anticancer activity (in words) [5]
CNc1nccc(-c2sc(NC(=O)Nc3ccc(C)c(C(F)(F)F)c3)nc2C)n1 [Compound 26, 1-(4-Methyl-3-(trifluoromethyl)-phenyl)-3-(4-methyl-5-(2-(methylamino)pyrimidin-4-yl)thiazol-2-yl)urea]	2560 ± 490 nM	15 nM	5100 ± 660 nM	–	–
CNc1nccc(-c2sc(NC(=O)Nc3ccc(CN4CCOCC4)c(Cl)c3)nc2C)n1 [Compound 31, 1-(3-Chloro-4-(morpholinomethyl)phenyl)-3-(4-methyl-5-(2-(methylamino)-pyrimidin-4-yl)thiazol-2-yl)urea]	945 ± 50 nM	22 nM	6830 ± 1010 nM	–	–
Cc1nc(NC(=O)Nc2cccc(Cl)c2)sc1-c1ccnc(N(C)C)n1 [Compound 47, 1-(3-Chlorophenyl)-3-(5-(2-(dimethylamino)pyrimidin-4-yl)-4-methylthiazol-2-yl)urea]	5280 ± 150 nM	38 nM	5770 ± 420 nM	–	–
Cc1nc(NC(=O)Nc2cccc(C(F)(F)F)c2)sc1-c1ccnc(N)n1 [Compound 51, 1-(5-(2-Aminopyrimidin-4-yl)-4-methylthiazol-2-yl)-3-(3-(trifluoromethyl)phenyl)urea]	5710 ± 590 nM	60 nM	4320 ± 410 nM	–	–
CNc1nccc(-c2sc(NC(=O)Nc3ccc(OC)cc3)nc2C)n1 [Compound 45, 1-(4-Methoxyphenyl)-3-(4-methyl-5-(2-(methylamino)pyrimidin-4-yl)thiazol-2-yl)urea]	756 ± 120 nM	11 nM	3040 ± 530 nM	–	–
CNc1nccc(-c2sc(NC(=O)Nc3ccc(CN4CCOCC4)c(C(F)(F)F)c3)nc2C)n1 [Compound 37, 1-(4-Methyl-5-(2-(methylamino)-pyrimidin-4-yl)thiazol-2-yl)-3-(4-(morpholinomethyl)-3-(trifluoromethyl)phenyl)urea]	68 ± 30 nM	9 nM	7840 ± 390 nM	–	–
CNc1nccc(-c2sc(NC(=O)Nc3cccc(C#N)c3)nc2C)n1 [Compound 15, 1-(3-Cyanophenyl)-3-(4-methyl-5-(2-(methylamino)pyrimidin-4-yl)thiazol-2-yl)urea]	565 ± 40 nM	8 nM	6250 ± 610 nM	–	–
CNc1nccc(-c2sc(NC(=O)Nc3cccc(OC(F)F)c3)nc2C)n1 [Compound 20, 1-(3-(Difluoromethoxy)phenyl)-3-(4-methyl-5-(2-(methylamino)-pyrimidin-4-yl)thiazol-2-yl)urea]	939 ± 60 nM	6 nM	4530 ± 980 nM	–	–
CNc1nccc(-c2sc(NC(=O)Nc3ccc(C(F)(F)F)c(F)c3)nc2C)n1 [Compound 28, 1-(3-Fluoro-4-(trifluoromethyl)phenyl)-3-(4-methyl-5-(2-(methylamino)-pyrimidin-4-yl)thiazol-2-yl)urea]	3280 ± 640 nM	26 nM	772 ± 250 nM	–	–
CNc1nccc(-c2sc(NC(=O)Nc3cccc(SC)c3)nc2C)n1 [Compound 21, 1-(4-Methyl-5-(2-(methylamino)-pyrimidin-4-yl)thiazol-2-yl)-3-(3-(methylthio)phenyl)urea]	3350 ± 190 nM	9 nM	6130 ± 910 nM	–	–
CNc1nccc(-c2sc(NC(=O)Nc3cccc(S(=O)(=O)C(F)(F)F)c3)nc2C)n1 [Compound 23, 1-(4-Methyl-5-(2-(methylamino)pyrimidin-4-yl)-thiazol-2-yl)-3-(3-((trifluoromethyl)-sulfonyl)phenyl)urea]	3170 ± 530 nM	26 nM	4960 ± 120 nM	–	–
CNc1nccc(-c2sc(NC(=O)Nc3cc(C(F)(F)F)ccc3C(F)(F)F)nc2C)n1 [Compound 9, 1-(2,5-Bis(trifluoromethyl)phenyl)-3-(4-methyl-5-(2-(methylamino)-pyrimidin-4-yl)thiazol-2-yl)urea]	526 ± 40 nM	41 nM	519 ± 160 nM	–	–
CNc1nccc(-c2sc(NC(=O)Nc3ccc(Cl)c(C)c3)nc2C)n1 [Compound 30, 1-(4-Chloro-3-methylphenyl)-3-(4-methyl-5-(2-(methylamino)-pyrimidin-4-yl)thiazol-2-yl)urea]	4390 ± 1020 nM	8 nM	2350 ± 3210 nM	–	–
Cc1nc(NC(=O)Nc2cccc(C(F)(F)F)c2)sc1-c1ccnc(N(C)C)n1 [Compound 46, 1-(5-(2-(Dimethylamino)pyrimidin-4-yl)-4-methylthiazol-2-yl)-3-(3-(trifluoromethyl)phenyl)urea]	5500 ± 490 nM	41 nM	35000 ± 11800 nM	–	–
Cc1ccc(NC(=O)Nc2nc(C)c(-c3ccnc(N(C)C)n3)s2)cc1Cl [Compound 48, 1-(3-Chloro-4-methylphenyl)-3-(5-(2-(dimethylamino)pyrimidin-4-yl)-4-methylthiazol-2-yl)urea]	5910 ± 180 nM	46 nM	8340 ± 600 nM	–	–
CNc1nccc(-c2sc(NC(=O)Nc3cccc(C(F)(F)F)c3)nc2C)n1 [Compound 10, 1-(4-Methyl-5-(2-(methylamino)-pyrimidin-4-yl)thiazol-2-yl)-3-(3-(trifluoromethyl)phenyl)urea]	870 ± 360 nM	10 nM	510 ± 30 nM	–	–
CNc1nccc(-c2sc(NC(=O)Nc3ccc(F)c(C(F)(F)F)c3)nc2C)n1 [Compound 25, 1-(4-Fluoro-3-(trifluoromethyl)phenyl)-3-(4-methyl-5-(2-(methylamino)-pyrimidin-4-yl)thiazol-2-yl)urea]	2230 ± 140 nM	13 nM	5850 ± 1140 nM	–	–
CNc1nccc(-c2sc(NC(=O)Nc3ccc(Cl)cc3)nc2C)n1 [Compound 43]	1520 ± 800 nM	9 nM	5960 ± 440 nM	–	–
CNc1nccc(-c2sc(NC(=O)Nc3ccc(C(F)(F)F)c(Cl)c3)nc2C)n1 [Compound 5, 1-(3-Chloro-4-(trifluoromethyl)-phenyl)-3-(4-methyl-5-(2-(methylamino)pyrimidin-4-yl)thiazol-2-yl)urea]	3810 ± 580 nM	25 nM	7100 ± 960 nM	–	–
CNc1nccc(-c2sc(NC(=O)Nc3cccc(C(C)C)c3)nc2C)n1 [Compound 17, 1-(3-Isopropylphenyl)-3-(4-methyl-5-(2-(methylamino)pyrimidin-4-yl)thiazol-2-yl)urea]	3510 ± 790 nM	15 nM	5970 ± 723 nM	–	–
CNc1nccc(-c2sc(NC(=O)Nc3cccc(OC(F)(F)F)c3)nc2C)n1 [Compound 18, 1-(4-Methyl-5-(2-(methylamino)-pyrimidin-4-yl)thiazol-2-yl)-3-(3-(trifluoromethoxy)phenyl)urea]	5000 ± 630 nM	25 nM	4290 ± 523 nM	–	–
CNc1nccc(-c2sc(NC(=O)Nc3ccccc3)nc2C)n1 [Compound 1, 1-(4-Methyl-5-(2-(methylamino)pyrimidin-4-yl)thiazol-2-yl)-3-phenylurea]	639 ± 120 nM	36 nM	1510 ± 60 nM	–	–
CNc1nccc(-c2sc(NC(=O)Nc3cccc(Cl)c3)nc2C)n1 [Compound 11, 1-(3-Chlorophenyl)-3-(4-methyl-5-(2-(methylamino)pyrimidin-4-yl)thiazol-2-yl)urea]	1480 ± 1320 nM	33 nM	693 ± 30 nM	–	–
CNc1nccc(-c2sc(NC(=O)Nc3cccc(SC(F)(F)F)c3)nc2C)n1 [Compound 22, 1-(4-Methyl-5-(2-(methylamino)-pyrimidin-4-yl)thiazol-2-yl)-3-(3-((trifluoromethyl)thio)phenyl)urea]	4630 ± 1560 nM	20 nM	4310 ± 750 nM	–	–
CNc1nccc(-c2sc(NC(=O)Nc3ccc(CN4CCN(C)CC4)c(C(F)(F)F)c3)nc2C)n1 [Compound 32, 1-(4-Methyl-5-(2-(methylamino)-pyrimidin-4-yl)thiazol-2-yl)-3-(4-((4-methylpiperazin-1-yl)methyl)-3-(trifluoromethyl)phenyl)urea]	< 1 nM	12 nM	366 ± 90 nM	–	–
CNc1nccc(-c2sc(NC(=O)Nc3cccc(Br)c3)nc2C)n1 [Compound 12, 1-(3-Bromophenyl)-3-(4-methyl-5-(2-(methylamino)pyrimidin-4-yl)thiazol-2-yl)urea]	2110 ± 1640 nM	7 nM	6400 ± 270 nM	–	–
cortistatin A	–	–	–	suppress cell growth	shows anticancer activity
CNc1nccc(-c2sc(NC(=O)Nc3ccc(C)c(Cl)c3)nc2C)n1 [Compound 29, 1-(3-Chloro-4-methylphenyl)-3-(4-methyl-5-(2-(methylamino)-pyrimidin-4-yl)thiazol-2-yl)urea]	2160 ± 1170 nM	13 nM	7770 ± 430 nM	–	–
CNc1nccc(-c2sc(NC(=O)Nc3ccccc3OC)nc2C)n1 [Compound 4, 1-(2-Methoxyphenyl)-3-(4-methyl-5-(2-(methylamino)pyrimidin-4-yl)thiazol-2-yl)urea]	457 ± 180 nM	49 nM	537 ± 140 nM	–	–

From patent US11325900B2, “5-(pyrimidin-4-yl)thiazol-2-yl urea derivatives as therapeutic agents” (AUCENTRA HOLDINGS PTY LTD, priority 2018, dated 2022)
